From patent US5763435A, “Sulfate conjugates of ursodeoxycholic acid, and their beneficial use in inflammatory disorders” (priority 1995, dated 1998)
Where “and” joins values, the source holds several entries; their conditions need not be identical. Equal values may be shown once. Entries after “also recorded” stand apart in the source; their conditions may differ.

How the values were obtained:
[1] = system: Principal Bile Acids in Liver; test: Bile acid composition of liver tissue after oral administration (GC-MS); format: in vivo, Sprague-Dawley rats
Procedure: Male Sprague-Dawley rats (Harlan Sprague-Dawley, Inc., Indianapolis, Ind.), weighing 210-290 g, were maintained on a 12-hour light-dark cycle and fed standard laboratory chow ad libitum for 3 days. The animals were then transferred to metabolic cages in which they were housed individually and fed the same diet. UDCA, UDCA 3-sulfate, UDCA 7-sulfate, and UDCA 3,7-disulfate were administered by gavage at a dose of 250 mg/day for 4 consecutive days. Each group comprised 3-6 rats. Body weights of the animals were measured each day. On day 5, the animals were killed by exsanguination under ether anesthesia. Plasma was collected and frozen at -20° C. The liver was removed, rinsed in normal saline, and flash-frozen in liquid nitrogen. Urine and feces were collected every 24 hours and frozen at -20° C. All animals received humane care in compliance with the "Guide for the Care and Use of Laboratory Animals" prepared by the National Academy of Sciences (National Institutes of Health publication no. 86-23, revised in 1985).
Samples of liver (100 mg) were ground to a fine paste, and bile acids were extracted by reflux and passage through a column of Lipidex 1000 as described above for intestinal contents and feces. Group separation of bile acids, according to their mode of conjugation was achieved by lipophilic anion-exchange chromatography. Extracts from each animal were pooled, and bile acids and their conjugates were separated using Lipidex-DEAP and stepwise elution of the gel bed with the following buffers: 0.1 mol/L acetic acid in 72% ethanol (unconjugated bile acids); 0.3 mol/L acetic acid in 72% ethanol, pH 5.0 (glycine conjugates); 0.15 mol/L acetic acid in 72% ethanol, pH 6.5 (taurine conjugates); and 0.3 mol/L acetic acid in 72% ethanol, pH 9.6 (sulfate conjugates). After evaporation of the buffers, sulfated bile acids were solvolyzed, whereas amidated conjugates were hydrolyzed with 50 U of cholylglycine hydrolase (Sigma Chemical Co.) in 2.5 mL of 0.2 mol/L phosphate buffer, pH 5.6, at 37° C. overnight. The resulting unconjugated bile acids were isolated on Lipidex-DEAP, and the methyl ester-trimethylsilyl ether derivatives were prepared as described above.
GC-MS analysis was performed using a Finnigan 4635 mass spectrometer (Finnigan Inc., San Jose, Calif.) that housed an identical gas chromatography column operated under the same conditions. Electron ionization (70 eV) mass spectra were recorded over the mass range of 50-800 daltons by repetitive scanning of the eluting components. Identification of bile acids was made on the basis of the gas chromatography retention index relative to a homologous series of n-alkanes, referred to as the methylene unit value, and the mass spectrum compared with authentic standards. Quantification of bile acids was achieved using gas chromatography by comparing the peak height response of the individual bile acids with the peak height response obtained from the internal standard.
Data are expressed as mean±SEM or as mean values of all animals when extracts were pooled before analysis. Results from different groups were compared using paired and unpaired two-tailed Student's t-test. P values of <0.05 were considered statistically significant.

bile-flow = test: Bile-flow and bile acid secretion during i.v. infusion; format: in vivo, Sprague-Dawley rats; conditions: for Bile flow, maximum / Bile salt output (biliary bile acid secretion rate), maximum: i.v. infusion 0.5, 1.0, 2.0 μmol/min/100 g, mean ± SEM, six animals; for Apparent choleretic activity (slope of regression line): bile acid secretion rate vs bile-flow
Procedure: Adult male Sprague-Dawley rats (body weight 200-230 g) were anesthetized by an intraperitoneal injection of pentobarbital (Nembutal, 7.5 mg/100 g body weight), and maintained under sedation by additional doses. The right jugular vein and the common bile duct were cannulated using PE-50 polyethylene tubing (Clay-Adams, Parsippany, N.J.). Body temperature was maintained throughout the experiment at 37° C. using a rectal probe and a thermostatically controlled heating pad (Harvard Apparatus Co., Inc., Millis, Mass.). Saline was infused at a rate of 1.0 ml/h using a Harvard pump (Harvard Apparatus Co., Inc.) into the jugular vein for a control period of 2h. After collecting two 10 minute bile samples for base-line analysis, the bile acids were individually infused intravenously (i.v.) for 30 minutes in stepwise increasing doses (0.5, 1.0, and 2.0 μmol/min/100 g body weight). Bile acid solutions were prepared in 3% human albumin in 0.45% saline. Six animals were used for each experiment and bile was collected every 10 minutes into preweighed tubes. At the end of the experiment, blood was obtained by cardiac puncture, and urine was obtained by aspiration of the bladder. All biological specimens were stored at -20° C. This animal study protocol (#1 B 10044) was approved by the Bioethics committee of the Children's Hospital Medical Center (Cincinnati, Ohio).
Bile volume was determined gravimetrically assuming a density of 1 g/ml. Total 3α-hydroxy bile acid concentration in the bile was measured enzymatically before solvolysis (nonsulfated bile acids) and after solvolysis (total bile acids) (Mashige, F., et al., Direct spectrometry of total bile acids in serum. Clin. Chem. 27: 1352-1356 (1981)). The bile acid output was calculated by multiplying the rate of bile-flow by the bile acid concentration. Biliary phospholipids were determined by an enzymatic procedure based on the choline oxidase method (Nippon Shoji Kaisha, Ltd., Osaka, Japan) (Grantz, D., et al., Enzymatic measurement of choline-containing phospholipids in bile. J. Lipid Res. 22: 273-276 (1981)). Cholesterol was also measured enzymatically (Boehringer Mannehim, Indianapolis, Ind.) (Fromm, H., et al., Use of a simple enzymatic assay for cholesterol analysis in human bile. J. Lipid Res. 21: 259-261 (1980)).
Results were expressed as mean±standard error of mean (SEM). Bile-flow and biliary lipid output were expressed as μl /min/g liver and nmol/min/g liver, respectively. Statistical analysis was made using INSTAT program (Graphpad Software Inc., San Diego, Calif.). Parametric data among groups were analyzed using Student's t-test. The statistical comparisons between the different groups were made by one-way analysis of variance (ANOVA). […] Linear regression analysis was performed. The choleretic activity of each bile acid was determined from the slope of regression line of the correlation between the bile acid secretion rate and bile-flow and was expressed as […]. Comparisons between slopes were made by one-way ANOVA.

Compound | Chenodeoxycholic acid concentration in liver ([1]; oral gavage 250 mg/day, 4 days) [nmol/g] | Chenodeoxycholic acid percent of hepatic bile acids ([1]; oral gavage 250 mg/day, 4 days) [%] | Cholic acid concentration in liver ([1]; oral gavage 250 mg/day, 4 days) [nmol/g] | Cholic acid percent of hepatic bile acids ([1]; oral gavage 250 mg/day, 4 days) [%] | Deoxycholic acid concentration in liver ([1]; oral gavage 250 mg/day, 4 days) [nmol/g] | Deoxycholic acid percent of hepatic bile acids ([1]; oral gavage 250 mg/day, 4 days) [%] | Lithocholic acid concentration in liver ([1]; oral gavage 250 mg/day, 4 days) [nmol/g] | Lithocholic acid percent of hepatic bile acids ([1]; oral gavage 250 mg/day, 4 days) [%] | Total bile acid concentration in liver ([1]; oral gavage 250 mg/day, 4 days) [nmol/g] | UDCA percent of hepatic bile acids ([1]; oral gavage 250 mg/day, 4 days) [%] | Δ^22-UDCA concentration in liver ([1]; oral gavage 250 mg/day, 4 days) [nmol/g] | Δ^22-UDCA percent of hepatic bile acids ([1]; oral gavage 250 mg/day, 4 days) [%] | Δ^22-β-Muricholic acid concentration in liver ([1]; oral gavage 250 mg/day, 4 days) [nmol/g] | Δ^22-β-Muricholic acid percent of hepatic bile acids ([1]; oral gavage 250 mg/day, 4 days) [%] | Δ^22-ω-Muricholic acid concentration in liver ([1]; oral gavage 250 mg/day, 4 days) [nmol/g] | Δ^22-ω-Muricholic acid percent of hepatic bile acids ([1]; oral gavage 250 mg/day, 4 days) [%] | α-Muricholic acid concentration in liver ([1]; oral gavage 250 mg/day, 4 days) [nmol/g] | α-Muricholic acid percent of hepatic bile acids ([1]; oral gavage 250 mg/day, 4 days) [%] | β-Muricholic acid concentration in liver ([1]; oral gavage 250 mg/day, 4 days) [nmol/g] | β-Muricholic acid percent of hepatic bile acids ([1]; oral gavage 250 mg/day, 4 days) [%] | further results
C[C@H](CCC(=O)O)[C@H]1CC[C@H]2[C@@H]3[C@@H](OS(=O)(=O)O)C[C@@H]4C[C@H](O)CC[C@]4(C)[C@H]3CC[C@]12C [UDCA-7S, ursodeoxycholic acid 7-sulfate] | 6.4 | 1.9 | 186.1 | 56.0 | 14.9 | 4.5 | 3.2 | 1.0 | 332.3 | 1.8 | 8.7 | 2.6 | 59.8 | 18.0 | 6.6 | 2.0 | 0.4 | 0.1 | 36.1 | 10.8 | ω-Muricholic acid concentration in liver ([1]; oral gavage 250 mg/day, 4 days): 4.0 nmol/g; ω-Muricholic acid percent of hepatic bile acids ([1]; oral gavage 250 mg/day, 4 days): 1.2%; Hepatic UDCA concentration change (in words) ([1]; oral, vs control): low compared with the control animals; Bile flow, maximum (bile-flow): 5.83 ± 0.31 μl/min/g liver; Bile salt output (biliary bile acid secretion rate), maximum (bile-flow): 255.40 ± 18.20 nmol/min/g liver and 255.4±18.2 nmol/min/g liver; Apparent choleretic activity (slope of regression line) (bile-flow; i.v. infusion): 15 ± 1 µL/µmol
C[C@H](CCC(=O)O)[C@H]1CC[C@H]2[C@@H]3[C@@H](O)C[C@@H]4C[C@H](O)CC[C@]4(C)[C@H]3CC[C@]12C [UDCA, 3 alpha, 7 beta-dihydroxy-5 beta-cholan-24oic acid, reference compound] | 12.4 | 3.7 | 42.3 | 12.7 | 22.5 | 6.8 | 8.0 | 2.4 | 331.8 | 30.0 | 37.4 | 11.3 | 20.9 | 6.3 | 4.8 | 1.4 | 16.1 | 4.8 | 60.6 | 18.3 | Conjugation of UDCA in liver tissue ([1]; oral): biotransformed by conjugation, mainly with taurine; also recorded: predominantly conjugated by amidation; Fold decrease of liver tissue cholic acid concentration ([1]; oral): ~4 fold; UDCA concentration in liver ([1]; oral gavage 250 mg/day, 4 days): 99.6 nmol/g; ω-Muricholic acid concentration in liver ([1]; oral gavage 250 mg/day, 4 days): 6.3 nmol/g; ω-Muricholic acid percent of hepatic bile acids ([1]; oral gavage 250 mg/day, 4 days): 1.9%; Hepatic UDCA concentration change (in words) ([1]; oral, vs control): increased concentrations and proportions of liver tissue UDCA; also recorded: increased markedly; Hepatic lithocholic acid change (in words) ([1]; oral, vs control): increased hepatic lithocholic acid concentration; Bile flow, maximum (bile-flow): 4.88 ± 0.16 μl/min/g liver; Bile salt output (biliary bile acid secretion rate), maximum (bile-flow): 145.10 ± 17.30 nmol/min/g liver and 145.1±17.3 nmol/min/g liver; Apparent choleretic activity (slope of regression line) (bile-flow; i.v. infusion): 16 ± 2 µL/µmol
C[C@H](CCC(=O)O)[C@H]1CC[C@H]2[C@@H]3[C@@H](O)C[C@@H]4C[C@H](OS(=O)(=O)O)CC[C@]4(C)[C@H]3CC[C@]12C [UDCA-3S, ursodeoxycholic acid 3-sulfate] | 9.2 | 2.5 | 86.6 | 23.9 | 52.6 | 14.5 | 3.2 | 0.9 | 361.7 | 15.6 | 31.3 | 8.6 | 36.3 | 10.0 | 6.3 | 1.7 | 6.0 | 1.6 | 65.4 | 18.1 | ω-Muricholic acid concentration in liver ([1]; oral gavage 250 mg/day, 4 days): 8.1 nmol/g; ω-Muricholic acid percent of hepatic bile acids ([1]; oral gavage 250 mg/day, 4 days): 2.2%; Hepatic UDCA concentration change (in words) ([1]; oral, vs control): increased concentrations and proportions of liver tissue UDCA; Conjugation of UDCA in liver tissue ([1]; oral, listed as C-3 sulfate): biotransformed by conjugation, mainly with taurine; Conjugation of UDCA in liver tissue ([1]; oral, listed as UDCA 3-sulfate): significant desulfation and amidation; Choleretic effect / order of maximum bile-flow (in words) (bile-flow; i.v. infusion): less effective in stimulating bile-flow than unconjugated UDCA; Bile flow, maximum (bile-flow): 3.34 ± 0.13 μl/min/g liver; Bile salt output (biliary bile acid secretion rate), maximum (bile-flow): 138.90 ± 11.80 nmol/min/g liver and 138.9±11.8 nmol/min/g liver; Apparent choleretic activity (slope of regression line) (bile-flow; i.v. infusion): 13 ± 1 µL/µmol
